Measured values published in patent publication US20210007356A1, “IMIDE DERIVATIVE AND FUNGICIDE CONTAINING SAID DERIVATIVE AS ACTIVE INGREDIENT” (HOKKO CHEMICAL INDUSTRY CO., LTD., priority 2018, published 2021).
Read-outs that look alike come from different tables or passages of the source.

Experiments:
[1] = test system: barley powdery mildew fungus (Erysiphe graminis); test: Test Example 2: control effect against barley powdery mildew by foliage application; type: in vivo; conditions: wettable powder diluted to 100 ppm, 10 mL per pot foliage spray on barley; inoculated day after; 7 days after inoculation
[2] = test system: rice blast fungus (Pyricularia grisea); type: in vivo; conditions: flowable diluted to 100 ppm, 10 mL per pot foliage spray on paddy rice; inoculated day after; 7 days after inoculation
[3] = test system: rice blast fungus (Pyricularia grisea); type: in vivo; conditions: flowable 5,000 ppm, 50 mL irrigation of nursery box, paddy rice; inoculated after 3 weeks; 7 days after inoculation
[4] = test system: rice blast fungus (Pyricularia grisea); type: in vivo; conditions: 5 g of granule on nursery box, paddy rice; inoculated after 3 weeks; 7 days after inoculation
[5] = test system: rice blast fungus (Pyricularia grisea); type: in vivo; conditions: flowable 1,000 ppm, 1 mL dripped in paddy water, inoculated after 1 week, 7 days after inoculation
[6] = test system: rice sheath blight fungus (Thanatephorus cucumeris); test: Test Example 8: control effect against rice sheath blight by box treatment (granule); conditions: 5 g of granule on nursery box, paddy rice; inoculated after 3 weeks; 7 days after inoculation
[7] = test system: rice sheath blight fungus (Thanatephorus cucumeris); test: Test Example 6: control effect against rice sheath blight by box treatment (flowable formulation); conditions: flowable 5,000 ppm, 50 mL irrigation of nursery box, paddy rice; inoculated after 3 weeks; 7 days after inoculation
Experimental: Control value (%)=[1−(lesion height in sprayed plot/lesion height in unsprayed plot)]×100 (d)
By irrigation, 50 mL of a diluted solution (5,000 ppm) of a flowable prepared according to Formulation Example-3 was applied to a 2.5-leaf-stage paddy rice (variety: Asahi) seedling raised using a nursery box ( 1/10 the area of standard nursery box in size: 12 cm×15 cm×height 4 cm) within a greenhouse. The formulation-treated paddy rice seedling was immediately transplanted at 5 seedlings/pot into a pot ( 1/10000 are in size) filled with paddy soil (flooded). After growing for 3 weeks within a greenhouse, a culture of rice sheath blight fungus (Thanatephorus cucumeris) grown in advance on a rice straw medium was inoculated into the root of the formulation-treated paddy rice, and disease development was promoted in an artificial weather chamber at 26° C. (relative humidity=100%). Seven days after the inoculation, the rice sheath blight lesion height (height from the root) was examined, and the control value (%) was calculated according to formula (d). […] This test was performed with three replications, each consisting of one plot and one pot, per one formulation plot, and its average evaluation value of control effect was determined.

[8] = test system: rice sheath blight fungus (Thanatephorus cucumeris); test: Test Example 10: control effect against rice sheath blight by water surface application (flowable formulation); conditions: flowable 1,000 ppm, 1 mL dripped in paddy water, inoculated after 1 week, 7 days after inoculation

| SMILES | evaluation value of control effect (from control value, lesion area percentage) [1] | evaluation value of control effect (from control value, number of lesions) [2] | evaluation value of control effect (from control value, number of lesions) [3] | evaluation value of control effect (from control value, number of lesions) [4] | evaluation value of control effect (from control value, number of lesions) [5] | evaluation value of control effect (from control value, lesion height) [6] | evaluation value of control effect (from control value, lesion height) [7] | evaluation value of control effect (from control value, lesion height) [8] |
| --- | --- | --- | --- | --- | --- | --- | --- | --- |
| Cn1cc(C(=O)N(C(=O)c2snc(Cl)c2Cl)c2ccccc2C2CC2C2CC2)c(C(F)F)n1 (centres unmarked) [1-29] | 4 | 4 | 5 | 5 | 5 | 5 | 5 | 5 |
| CC(C)CC(C)c1ccccc1N(C(=O)c1cn(C)nc1C(F)F)C(=O)c1snc(Cl)c1Cl (centres unmarked) [1-35] | 5 | 4 | 5 | 5 | 5 | 5 | 5 | 5 |
| Cc1nn(C)c(F)c1C(=O)N(C(=O)c1snc(Cl)c1Cl)c1ccccc1C(C)CC(C)C (centres unmarked) [1-131, 3,4-Dichloro-N-{2-(1,3-dimethylbutyl)phenyl}-N-(5-fluoro-1,3-dimethylpyrazole-4-carbonyl)isothiazole-5-carboxamide] | 4 | 4 | – | – | – | 5 | 5 | 5 |
| Cc1nnsc1C(=O)N(C(=O)c1cn(C)nc1C(F)F)c1ccccc1C(C)CC(C)C (centres unmarked) [1-146, N-{3-(Difluoromethyl)-1-methylpyrazole-4-carbonyl}-N-{2-(1,3-dimethylbutyl)phenyl}-4-methylthiadiazole-5-carboxamide] | 4 | 4 | 5 | 5 | 5 | 5 | 5 | 5 |
| CC(C)CC(C)c1ccccc1N(C(=O)c1cn(C)nc1C(F)F)C(=O)c1snnc1C(F)F (centres unmarked) [1-237] | 5 | 4 | 5 | 5 | 5 | 5 | 5 | 5 |
| Cc1nn(C)c(F)c1C(=O)N(C(=O)c1scnc1C(F)F)c1ccccc1C(C)CC(C)C (centres unmarked) [1-346] | 4 | 4 | 5 | 5 | 5 | – | – | – |
| Cc1nnsc1C(=O)N(C(=O)c1cn(C)nc1C(F)F)c1ccccc1-c1cc(F)c(F)c(F)c1 [1-368] | 4 | 4 | – | – | – | 5 | 5 | 5 |
| Cc1nn(C)c(C)c1C(=O)N(C(=O)c1snc(Cl)c1Cl)c1ccccc1C(C)CC(C)C (centres unmarked) [1-377] | 4 | 4 | 5 | 5 | 5 | – | – | – |
| Cc1nn(C)c(Cl)c1C(=O)N(C(=O)c1snc(Cl)c1Cl)c1ccccc1C(C)CC(C)C (centres unmarked) [1-378] | – | 4 | 5 | 5 | 5 | – | – | – |
| CC(C)CC(C)c1ccccc1N(C(=O)c1snc(Cl)c1Cl)C(=O)c1c(C(F)F)nn(C)c1Cl (centres unmarked) [1-379] | 4 | 4 | 5 | 5 | 5 | – | – | – |
| Cc1nnsc1C(=O)N(C(=O)c1cn(C)nc1C(F)(F)F)c1ccsc1C(C)CC(C)C (centres unmarked) [5-19] | 5 | 4 | 5 | 5 | 5 | – | – | – |
| Cc1nc(C(F)(F)F)c(C(=O)N(C(=O)c2snc(Cl)c2Cl)c2c(Br)cc(OC(F)(F)F)cc2Br)s1 [7-279] | 4 | 4 | – | – | – | 5 | 5 | 5 |
| Cc1nc(C(F)(F)F)c(C(=O)N(C(=O)c2sc(C)nc2C(F)(F)F)c2c(Br)cc(OC(F)(F)F)cc2Br)s1 [7-286] | 4 | 4 | – | – | – | 5 | 5 | 5 |
| CC(C)CC(C)c1ccccc1N(C(=O)c1cc(Cl)c(Cl)s1)C(=O)c1cccnc1C(F)F (centres unmarked) [13-50] | 4 | 4 | 5 | 5 | 5 | – | – | – |
| CC(C)CC(C)c1ccccc1N(C(=O)c1cccnc1CF)C(=O)c1snc(Cl)c1Cl (centres unmarked) [13-56] | 4 | 4 | 5 | 5 | 5 | – | – | – |
| CC(C)CC(C)c1ccccc1N(C(=O)c1cccnc1C(C)F)C(=O)c1snc(Cl)c1Cl (centres unmarked) [13-57] | – | 4 | 5 | 5 | 5 | – | – | – |
| CC(C)CC(C)c1ccccc1N(C(=O)c1ccccc1C(F)F)C(=O)c1snc(Cl)c1Cl (centres unmarked) [19-2] | 4 | 4 | 5 | 5 | 5 | – | – | – |
| Cc1nc(C(F)F)c(C(=O)N(C(=O)c2cn(C)nc2C(F)F)c2cccc3c2C(C)CC3(C)C)s1 (centres unmarked) [25-97] | 4 | 4 | – | – | – | 5 | 5 | 5 |
| Cc1nc(C(F)F)c(C(=O)N(C(=O)c2snnc2C)c2cccc3c2C(C)CC3(C)C)s1 (centres unmarked) [26-49] | 4 | 4 | 5 | 5 | 5 | – | – | – |
| Cc1nc(C(F)F)c(C(=O)N(C(=O)c2sc(C)nc2C(F)(F)F)c2cccc3c2C(C)CC3(C)C)s1 (centres unmarked) [26-73] | 4 | 4 | – | – | – | 5 | 5 | 5 |
| Cc1nc(C(F)F)c(C(=O)N(C(=O)c2cc(Cl)nc(Cl)c2)c2cccc3c2C(C)CC3(C)C)s1 (centres unmarked) [26-89] | 4 | 4 | – | – | – | 5 | 5 | 5 |
| CC1OC(C)(C)c2cccc(N(C(=O)c3ccccc3C(F)F)C(=O)c3snc(Cl)c3Cl)c21 (centres unmarked) [28-4] | – | 4 | 5 | 5 | 5 | 5 | 5 | 5 |
